Here are results for two compounds from patent US11787816B2, “Chlorin compound, and preparation and use thereof” (Southwest Jiaotong University, priority 2021, dated 2023).

The conditions of series [1]: background statement; cited from earlier work.
In series [2] the test system is murine mammary carcinoma 4T1 cells. Description: Antitumor activity as photosensitizers on tumor-bearing mice (two PDT treatments). The series is classed as in vivo. As to the method:
(§1) The murine mammary carcinoma cells (4T1 line) were subjected to adherent culture. After growing to a confluence of 70%-80%, the cells in the culture flask were routinely digested, centrifuged and counted, and then resuspended with 0.85% normal saline to a density of 1×10^7 cells/mL. The cell suspension was injected into the left lateral middle axillary subcutaneous part of […] Bal b/c healthy mice (female, aged 6-8 weeks) at 0.1 mL/mouse. When the tumor diameter, which was observed every other day, reached 0.6-0.8 cm, the mice with well-growing tumors and no ulcers on the epidermis were selected for grouped treatment.
(2) Mice with similar body weight and uniform tumor size are selected and randomly divided into 4 groups with 6 mice for each group. After inoculation of 4T1 cells and the tumor volume grows to 50˜80 mm^3, the mice were subjected to a first drug administration from the tail vein by group.
6 h after the drug administration, the mice were fixed to expose the tumor growth site. As a first PDT treatment, light irradiation was performed for 8 min, using PDT-660 photodynamic therapy equipment at the laser wavelength of 660 nm and the light dose of 150 Joule/cm^2. One week later, the second PDT treatment (the dosage and lighting conditions were the same as those of the first PDT treatment) was performed. The mice were sacrificed 14 days after the treatment. The tumor was removed, weighed and recorded.

Series [3] shares this test system. The experiment in a line: Antitumor activity as photosensitizers on tumor-bearing mice (one PDT treatment). The series is classed as in vivo. To be noted: for Inhibitory rate (average ± SD, %) / Tumor weight (average ± SD, g): 660 nm, 75 Joule/cm^2 6 h after dosing, 7 days after PDT; for Body weight At the begining / Body weight At the end: one PDT treatment, mice, in g (unit assumed). As to the method: as §1
(1) Mice with similar body weight and uniform tumor size are selected and randomly divided into 7 groups with 6 mice for each group. After inoculation for 48 h, the mice were subjected to drug administration separately from the tail vein by group.
6 h after the drug administration, the mice were fixed to expose the tumor growth site. Light irradiation was performed for 8 min, using PDT-660 photodynamic therapy equipment at a laser wavelength of 660 nm and a light dose of 75 Joule/cm^2. Then both of the mice growth and tumor growth are observed continuously. 7 days after photodynamic therapy, the animals were sacrificed. The tumor was stripped and weighed, and the body weight was recorded.

For series [4] the test system is unchanged. Description: Photosensitizer-mediated PDT, in vitro proliferation (MTT), 4T1. The series is classed as cell-based. As to the method: (§2) Several kinds of tumor cells (human cervical cancer Hela cells, human hepatocellular carcinoma huh-7 cells and murine mammary carcinoma 4T1 cells) cultured in vitro from a variety of tissues were taken as cell models, so as to investigate the photodynamic effects mediated by different doses of CEFN, CEFO, Ce6 and HPPH on the three different tumor cells (n=3). The specific experimental procedures were carried out as follows.
(§3) Cells in the logarithmic growth phase were harvested and seeded in a 24-well plate. After growing to a confluence of 70-80%, the cells were randomly divided into a control group (free of drug and light irradiation), a drug group and a photodynamic group. The CEFN, CEFO, Ce6 and HPPH were added respectively in dark, and for each drug, four final concentrations 1, 2, 5, and 10 μg/mL were set with 3 replicates for each group. After the co-incubation, the groups were treated individually. Regarding the photodynamic group, the light irradiation was performed at a wavelength of 660 nm and three different light intensities, i.e., 2, 4 and 8 J/cm^2. After that, each group was digested, and were inoculated into a 96-well plate at 100 μL per well with 4 replicates for each treatment. 24 hours later, the 96-well plate was subjected to MTT assay as follows. Each well was added with 20 μL of MTT (3-4,5-dimethylthiazol-2,5-diphenyltetrazolium bromide) solution in the dark and incubated for 4 hours. The supernatant was discarded, and the residue was dissolved with 150 μL of dimethyl sulfoxide for 15 min. After that, the 96-well plate was measured by a microplate reader for the absorbance (OD value). The relative cell viability was calculated as follows: relative cell viability=OD value of experimental group/OD value of control group*100%.
In this experiment, photodynamic effect mediated by the compounds (except CEFO and CEFN) in different Examples of this disclosure on the murine mammary carcinoma 4T1 cells was investigated. The experimental procedures are carried out as follows. Cells in the logarithmic growth phase were harvested and seeded in a 24-well plate. After growing to a confluence of 70-80%, the cells were randomly divided into multiple photodynamic groups and multiple no-light control groups. The compounds (as shown in Table 8a) with a final concentration of 10 μg/mL were added to each group respectively in dark with 3 replicates for each group, so as to co-incubate the cells with the drug. Regarding the multiple photodynamic groups, the light irradiation was performed at a wavelength of 660 nm and the light intensity of 8 J/cm^2. After that, each group was digested, and were inoculated into a 96-well plate at 100 μL per well with 4 replicates for light treatment and no light treatment. 24 hours later, the 96-well plate was measured by MTT assay as follows. Each well was added with 20 μL of MTT (3-4,5-dimethylthiazol-2,5-diphenyltetrazolium bromide) solution in the dark and incubated for 4 hours. The supernatant was discarded, and the residue was dissolved with 150 μL of dimethyl sulfoxide for 15 min. After that, the 96-well plate was measured by a microplate reader for the absorbance (OD value). The relative cell viability of the murine mammary carcinoma 4T1 cells was calculated as follows according to the measured absorbance (OD value) in each group: relative cell viability=OD value of experimental group/OD value of control group*100%.

For series [5], the system named is human cervical cancer Hela cells. The experiment in a line: Photosensitizer-mediated PDT, in vitro proliferation (MTT), Hela. To be noted: Hela. It counts as cell-based. The protocol: as §2, §3
Series [6] relates to human hepatocellular carcinoma huh-7 cells. The experiment in a line: Photosensitizer-mediated PDT, in vitro proliferation (MTT), huh-7. It counts as cell-based. As to the method:
as §2, §3

The mark [7] stands for this setting: 0.25 mg/kg tail vein, two PDT treatments one week apart, 660 nm, 150 Joule/cm^2, 14 days after treatment.
[8] abbreviates: 0.25 mg/kg, two PDT treatments, mice, in g (unit assumed).

“2-(1-n-hexyloxy)ethyl chlorin f sodium salt”: in series [1], the water solubility result is recorded as “water-soluble”.

Regarding `CCCCCCOC(C)c1c(C)c2cc3nc(c4c5[nH]c(cc6nc(cc1[nH]2)C(C)=C6CC)c(C)c5C(=O)C4)[C@@H](CCC(=O)O)[C@@H]3C` (some centres unmarked) [HPPH, 2-(1-hexyloxyethyl)-2-devinyl pyropheophorbide-a, reference compound], the “Inhibitory rate (average ± SD, %)” value turned out to be 90.7 ± 2.1% in series [2] (setting [7]), 72.2 ± 3.5% in series [3] (0.2 mg/kg tail vein) and 89.5 ± 2.5% in series [3] (0.4 mg/kg tail vein). The “Tumor weight (average ± SD, g)” value in series [2] (setting [7]) came to 0.088 ± 0.020 g; in series [3] (0.2 mg/kg tail vein), 0.045 ± 0.006 g; in series [3] (0.4 mg/kg tail vein), 0.017 ± 0.004 g. Moreover, the “Body weight At the beginning” value in series [2] (setting [8]) came to 20.5 ± 0.4. Besides, the “Body weight At the end” value in series [2] (setting [8]) is 22.5 ± 0.2; in series [3] (0.2 mg/kg), 21.6 ± 0.4; in series [3] (0.4 mg/kg), 21.8 ± 0.2. Further, the “Body weight At the begining” value amounted to 20.5 ± 0.4 in series [3] (0.2 mg/kg) and 20.7 ± 0.3 in series [3] (0.4 mg/kg). The “cell viability (%)” value in series [4] (1 μg/mL, 660 nm, 8 J/cm^2) stood at 83 ± 3%; in series [4] (1 μg/mL, no light), 107 ± 4%; in series [4] (2 μg/mL, 660 nm, 8 J/cm^2), 53 ± 2%; in series [4] (2 μg/mL, no light), 103 ± 2%; in series [4] (5 μg/mL, 660 nm, 8 J/cm^2), 33 ± 2%; in series [4] (5 μg/mL, no light) it was 98 ± 1%. Further, the “cell viability (%)” value in series [4] (10 μg/mL, 660 nm, 8 J/cm^2) was determined as 11 ± 2%; in series [4] (10 μg/mL, no light) it was 99 ± 44%; in series [5] (1 μg/mL, 660 nm, 8 J/cm^2), 65 ± 4%; in series [5] (1 μg/mL, no light) it was 100 ± 3%; in series [5] (2 μg/mL, 660 nm, 8 J/cm^2), 46 ± 1%; in series [5] (2 μg/mL, no light), 100 ± 2%. Further, the “cell viability (%)” value in series [5] (5 μg/mL, 660 nm, 8 J/cm^2) is 25 ± 2%; in series [5] (5 μg/mL, no light) it was 102 ± 3%; in series [5] (10 μg/mL, 660 nm, 8 J/cm^2), 12 ± 4%; in series [5] (10 μg/mL, no light) it was 96 ± 4%; in series [6] (1 μg/mL, 660 nm, 8 J/cm^2) it was 68 ± 3%; in series [6] (1 μg/mL, no light) it was 102 ± 4%. In addition, the “cell viability (%)” value came to 37 ± 3% in series [6] (2 μg/mL, 660 nm, 8 J/cm^2); 98 ± 2% in series [6] (2 μg/mL, no light); 26 ± 2% in series [6] (5 μg/mL, 660 nm, 8 J/cm^2); 97 ± 1% in series [6] (5 μg/mL, no light); 12 ± 2% in series [6] (10 μg/mL, 660 nm, 8 J/cm^2); 101 ± 4% in series [6] (10 μg/mL, no light). Besides, the water solubility result in series [1] is given as “water-insoluble”.
